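Briefly, cells in 96-well plates were exposed to five compound concentrations for 48 h, and endpoints were estimated by linear interpolation. GI50 is the concentration that inhibits growth by half. The concentration for full growth arrest is given as TGI.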

Among the test systems are EKVX NSCLC; UACC-62 melanoma; TK-10 renal; COLO 205 colon; K-562 leukemia; 786-0 renal; HOP-62 NSCLC; NCI-H23 lung; PC-3 prostate; MDA-MB-231 breast.
Assay in all cases: NCI-60 cell line screen, 48 h

As for `CN(C)C=Nc1ccn(CCO)c(=O)n1`, the TGI in the test with EKVX NSCLC, with UACC-62 melanoma, in the test on TK-10 renal, in the test with COLO 205 colon, in the test on K-562 leukemia and with 786-0 renal was above 100 µM throughout. In addition, the TGI in the test with HOP-62 NSCLC and in the test on NCI-H23 lung was above 100 µM throughout.

On to `Cc1cn(C2CC(O)C(COC(=O)c3ccccc3)O2)c(=O)[nH]c1=O` (centres undefined), for which the TGI with UACC-62 melanoma, in the test on TK-10 renal, in the test on COLO 205 colon, in the test on K-562 leukemia, in the test with 786-0 renal and with HOP-62 NSCLC was above 100 µM in each case. Besides, the TGI with NCI-H23 lung is above 100 µM.

Take `CC(C)(C)c1ccc(S(=O)(=O)Oc2ccc3c4c(c(=O)oc3c2)CCCCC4)cc1`: the GI50 with PC-3 prostate was 2.22 µM; with UACC-62 melanoma it was 3.19 µM; in the test on TK-10 renal, 18.1 µM; in the test with COLO 205 colon it was 14.4 µM; in the test on 786-0 renal it was 25.3 µM; in the test with HOP-62 NSCLC, 21.5 µM. For the same compound, the values for the GI50 in the test with MDA-MB-231 breast and with NCI-H23 lung were 15.2 µM and 13.5 µM, respectively. In addition, the TGI in the test on PC-3 prostate is above 100 µM; in the test with UACC-62 melanoma, 33.6 µM; in the test on TK-10 renal, 36.4 µM; with COLO 205 colon, above 100 µM; in the test with 786-0 renal, above 100 µM; with HOP-62 NSCLC, 46.2 µM. Further, the TGI in the test on MDA-MB-231 breast was 49.3 µM; with NCI-H23 lung it was above 100 µM.

With `COc1ccc(NC(=O)C(=O)c2c(O)c3ccc(O)cc3oc2=O)c([N+](=O)[O-])c1`, the TGI with EKVX NSCLC, in the test on UACC-62 melanoma, in the test on TK-10 renal, with COLO 205 colon, in the test with K-562 leukemia and in the test on 786-0 renal was above 100 µM throughout. This compound also gave a TGI in the test with NCI-H23 lung above 100 µM.

Turning to `CCCCCN(CCCCC)C(=O)[C@@H](CCC(=O)O)NC(=O)c1cc2ccccc2[nH]1`, the TGI is above 100 µM with EKVX NSCLC; 47.5 µM in the test with UACC-62 melanoma; above 100 µM in the test on TK-10 renal; 94.9 µM in the test with COLO 205 colon; above 100 µM in the test with K-562 leukemia; above 100 µM with 786-0 renal. Besides, the TGI in the test with HOP-62 NSCLC turned out to be 87.7 µM; in the test on NCI-H23 lung, 58 µM.

In the case of `CC(C)(O)[C@@H]1CC[C@@]2(C)CCCC(O)C2(O)C1` (some centres undefined), the TGI with UACC-62 melanoma, in the test with TK-10 renal, with COLO 205 colon, with K-562 leukemia, in the test with 786-0 renal and in the test on HOP-62 NSCLC was above 100 µM in each case. The TGI with NCI-H23 lung is above 100 µM.

As for `Cc1c(Cl)cccc1NC(=O)C(=O)C(C(=O)c1ccccc1-c1ccccc1)C1OC(=O)c2ccccc21` (centres undefined), the TGI in the test on EKVX NSCLC was 59 µM; in the test with UACC-62 melanoma it was 37.3 µM; in the test with TK-10 renal it was 57.6 µM; in the test on COLO 205 colon, 39.7 µM; in the test on K-562 leukemia, above 100 µM; in the test with 786-0 renal, 33.3 µM. For the same compound, the TGI in the test on HOP-62 NSCLC was found to be 35.5 µM; with NCI-H23 lung, 30.3 µM.

In the case of `N.N.N.N.N.[Co+3].[I-].[N-]=[N+]=[N-]`, the GI50 in the test on EKVX NSCLC is above 100 µM; in the test with UACC-62 melanoma it was 89.7 µM; with TK-10 renal, above 100 µM; in the test on COLO 205 colon, above 100 µM; in the test on K-562 leukemia it was above 100 µM; in the test with 786-0 renal it was above 100 µM. Moreover, the GI50 in the test on HOP-62 NSCLC and in the test on NCI-H23 lung was above 100 µM each time. Moreover, the TGI in the test on EKVX NSCLC, in the test with UACC-62 melanoma, in the test with TK-10 renal, in the test with COLO 205 colon, in the test with K-562 leukemia and in the test with 786-0 renal was above 100 µM throughout. Further, the TGI in the test on HOP-62 NSCLC and with NCI-H23 lung was above 100 µM in each case.

As to `C/C(=C1/N=C(c2cc([N+](=O)[O-])ccc2Cl)N(c2cccc(C)c2)C1=O)c1cc2ccccc2oc1=O`, the TGI in the test with EKVX NSCLC, with UACC-62 melanoma, with TK-10 renal, with COLO 205 colon, with K-562 leukemia and in the test on 786-0 renal was above 100 µM throughout. The TGI with HOP-62 NSCLC and in the test with NCI-H23 lung was above 100 µM throughout.

Turning to `COC(=O)C(Cc1cc(OC)c(OC)c(OC)c1)C(=O)OC`, the TGI with EKVX NSCLC, in the test on UACC-62 melanoma, in the test with TK-10 renal, in the test on COLO 205 colon, in the test on K-562 leukemia and in the test with 786-0 renal was above 320 µM in each case. The TGI with HOP-62 NSCLC and in the test on NCI-H23 lung was above 320 µM throughout.

For `O=C1C2Nc3ccccc3SC2C(=O)N1c1ccc(Br)cc1` (centres undefined), the TGI in the test with EKVX NSCLC was above 100 µM; with UACC-62 melanoma, above 100 µM; in the test on TK-10 renal it was above 100 µM; in the test with COLO 205 colon it was above 100 µM; with K-562 leukemia, above 100 µM; in the test with 786-0 renal, 46.6 µM. Moreover, the values for the TGI with HOP-62 NSCLC and with NCI-H23 lung were 55.1 µM and above 100 µM, respectively.

In the case of `Cn1c2c(c3ccccc31)CCN(CCCCN1CCCCC1)C2=O`, the TGI in the test with EKVX NSCLC was above 100 µM; in the test on UACC-62 melanoma, 66 µM; in the test on TK-10 renal, above 100 µM; with COLO 205 colon, above 100 µM; with K-562 leukemia, above 100 µM; with 786-0 renal, above 100 µM. The TGI in the test on HOP-62 NSCLC and with NCI-H23 lung was above 100 µM each time.

As to `CN(CCN1C(=O)c2cc([N+](=O)[O-])cc3cc([N+](=O)[O-])cc(c23)C1=O)CCN1C(=O)c2cc([N+](=O)[O-])cc3cc([N+](=O)[O-])cc(c23)C1=O`, the TGI with EKVX NSCLC was above 100 µM; in the test with UACC-62 melanoma, 3.8 µM; with TK-10 renal it was above 100 µM; with COLO 205 colon it was 14 µM; in the test with K-562 leukemia, above 100 µM; in the test on 786-0 renal, 13.7 µM. Moreover, the TGI in the test with HOP-62 NSCLC is above 100 µM; in the test with NCI-H23 lung, 27.9 µM.

Consider `Cc1ccc(S(=O)(=O)OCCn2cnc3nc(NC(=O)c4ccccc4)[nH]c(=O)c32)cc1`, for which the TGI with EKVX NSCLC, with UACC-62 melanoma, in the test with TK-10 renal, in the test on COLO 205 colon, in the test with K-562 leukemia and in the test on 786-0 renal was above 100 µM each time. In the test on HOP-62 NSCLC, this compound had a TGI above 100 µM.

(Values after PubChem BioAssay (NCI).)
